Each structure is given as a SMILES string.

For experiment [1], the target named is Myosin light chain kinase, smooth muscle (Gallus gallus, UniProt P11799). The experiment is described as follows: Inhibition of Myosin Light Chain kinase (MLCK).
For a further experiment, the target named is MAP kinase p38 (Homo sapiens, UniProt O15264+Q15759+Q16539+P53778). Description: Inhibition of p38 Mitogen-activated protein kinase. The format is protein assay.
A further experiment deals with Protein kinase C (PKC). Description: Inhibition of Protein kinase C (PKC) activity, Enzyme assay done using gamma-[32P]ATP and synthetic peptide substrates. The arrangement: species or system Rattus norvegicus.
For experiment [2], the target named is cAMP-dependent protein kinase A (Bos taurus, UniProt P00515+P00517+P05131+P31322). Description: Inhibition of Protein kinase A (PKA) activity, Enzyme assay was done using gamma-[32P]ATP and synthetic peptide substrates. The format is protein-complex assay.
The target in experiment [3] is Ca2+/calmodulin-dependent protein kinase II (CaM kinase II) (Rattus norvegicus, UniProt P11275+P08413+P15791+P11730). The experiment is described as follows: Inhibition of Calcium/calmodulin-dependent protein kinase type II (CaMKII) activity. The format is protein assay.

Sequence of Myosin light chain kinase, smooth muscle (P11799 whole entry): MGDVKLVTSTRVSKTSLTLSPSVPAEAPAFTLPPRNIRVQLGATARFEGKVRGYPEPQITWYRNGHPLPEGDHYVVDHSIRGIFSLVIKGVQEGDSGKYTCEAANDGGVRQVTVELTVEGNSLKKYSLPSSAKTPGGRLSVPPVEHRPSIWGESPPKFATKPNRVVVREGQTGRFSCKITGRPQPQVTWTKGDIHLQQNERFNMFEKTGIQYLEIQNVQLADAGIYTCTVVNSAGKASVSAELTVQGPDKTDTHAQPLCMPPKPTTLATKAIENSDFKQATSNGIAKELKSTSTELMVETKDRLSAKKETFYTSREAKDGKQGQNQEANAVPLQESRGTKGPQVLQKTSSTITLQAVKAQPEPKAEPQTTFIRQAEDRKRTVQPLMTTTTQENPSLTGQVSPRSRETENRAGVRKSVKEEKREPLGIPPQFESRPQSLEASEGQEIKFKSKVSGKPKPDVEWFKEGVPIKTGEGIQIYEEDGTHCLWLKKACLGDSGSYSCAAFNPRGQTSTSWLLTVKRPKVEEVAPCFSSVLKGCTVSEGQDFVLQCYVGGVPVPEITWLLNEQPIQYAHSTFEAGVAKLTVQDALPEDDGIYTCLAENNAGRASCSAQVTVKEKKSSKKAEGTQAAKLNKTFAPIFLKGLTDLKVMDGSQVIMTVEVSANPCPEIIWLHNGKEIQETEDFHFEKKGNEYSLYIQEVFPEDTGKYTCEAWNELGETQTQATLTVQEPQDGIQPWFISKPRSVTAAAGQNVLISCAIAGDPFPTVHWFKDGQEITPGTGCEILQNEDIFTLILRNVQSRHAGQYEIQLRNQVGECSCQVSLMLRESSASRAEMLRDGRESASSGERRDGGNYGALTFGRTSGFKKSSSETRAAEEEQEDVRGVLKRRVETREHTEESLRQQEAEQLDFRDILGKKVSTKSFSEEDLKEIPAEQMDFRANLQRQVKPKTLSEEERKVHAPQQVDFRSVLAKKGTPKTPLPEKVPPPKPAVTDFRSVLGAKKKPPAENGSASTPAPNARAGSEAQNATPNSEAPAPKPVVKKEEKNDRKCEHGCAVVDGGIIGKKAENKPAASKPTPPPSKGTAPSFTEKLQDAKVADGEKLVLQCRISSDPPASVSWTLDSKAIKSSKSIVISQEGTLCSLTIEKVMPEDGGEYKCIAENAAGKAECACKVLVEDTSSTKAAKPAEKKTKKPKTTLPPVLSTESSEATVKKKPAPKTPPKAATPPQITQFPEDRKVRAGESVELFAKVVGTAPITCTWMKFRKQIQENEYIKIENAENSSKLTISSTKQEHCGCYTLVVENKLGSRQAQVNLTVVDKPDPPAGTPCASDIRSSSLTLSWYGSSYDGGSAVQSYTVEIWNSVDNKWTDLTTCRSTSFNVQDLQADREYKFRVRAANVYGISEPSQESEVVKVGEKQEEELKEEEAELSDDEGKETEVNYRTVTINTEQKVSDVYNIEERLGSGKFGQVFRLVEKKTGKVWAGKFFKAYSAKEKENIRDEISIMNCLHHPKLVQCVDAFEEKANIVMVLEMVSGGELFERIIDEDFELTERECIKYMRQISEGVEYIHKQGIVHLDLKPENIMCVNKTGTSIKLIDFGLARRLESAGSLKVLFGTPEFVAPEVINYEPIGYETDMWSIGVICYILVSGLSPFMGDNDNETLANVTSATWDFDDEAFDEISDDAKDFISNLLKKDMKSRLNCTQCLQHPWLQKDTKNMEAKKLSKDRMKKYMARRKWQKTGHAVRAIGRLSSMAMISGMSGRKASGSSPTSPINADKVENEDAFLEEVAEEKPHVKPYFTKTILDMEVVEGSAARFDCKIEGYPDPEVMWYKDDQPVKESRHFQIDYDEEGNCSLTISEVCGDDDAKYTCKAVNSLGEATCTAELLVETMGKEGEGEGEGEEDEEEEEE

The term IC50 denotes the concentration needed to halve the response being measured. In the case of `N=c1cc2c(nn1CCCCCCCCCCC(=O)N1CCN(c3ncccn3)CC1)-c1ccccc1CC2`, the IC50 is more than 100 µM in experiment [1]; more than 100 µM at MAP kinase p38; more than 100 µM at Protein kinase C (PKC); more than 100 µM in experiment [2]; 9.7 µM in experiment [3].

For `COc1ccc(S(=O)(=O)N(CCO)c2ccccc2CN(C)C/C=C/c2ccc(Cl)cc2)cc1`, the IC50 against MAP kinase p38 was more than 100 µM; on Protein kinase C (PKC) it was more than 100 µM; in experiment [2], more than 100 µM; in experiment [3], 8.4 µM.

(Values after ChEMBL document CHEMBL1135701, “Discovery of a 3-amino-6-phenyl-pyridazine derivative as a new synthetic antineuroinflammatory compound” (J Med Chem, 2002).)
